{
  "source": "patent US20080199858A1",
  "about": "“Method for Detecting Estrogen-Like Chemicals by Plant” (priority 2004, published 2008)",
  "target": "T1, chimeric estrogen receptor containing hERαLBD and LexA DBD (Homo sapiens, UniProt P03372)",
  "T1 construct": "expressed in transfected cells; host or cells: transgenic Arabidopsis thaliana (Columbia), Agrobacterium C58-mediated transformation, CaMV 35S promoter",
  "T1 sequence (P0A7C2 1-87, change not shown)": "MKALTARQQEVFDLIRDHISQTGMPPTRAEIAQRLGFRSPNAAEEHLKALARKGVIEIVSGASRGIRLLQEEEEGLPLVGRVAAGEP",
  "T1 sequence (P03372 311-547, change not shown)": "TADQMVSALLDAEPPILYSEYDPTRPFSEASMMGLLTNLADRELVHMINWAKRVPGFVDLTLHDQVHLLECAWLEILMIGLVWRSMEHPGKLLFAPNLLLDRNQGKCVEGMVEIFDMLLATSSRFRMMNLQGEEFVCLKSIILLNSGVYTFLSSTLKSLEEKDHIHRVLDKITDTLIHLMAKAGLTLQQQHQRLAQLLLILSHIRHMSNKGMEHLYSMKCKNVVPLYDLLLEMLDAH",
  "T1 sequence (Q15596 624-869, change not shown, further chain)": "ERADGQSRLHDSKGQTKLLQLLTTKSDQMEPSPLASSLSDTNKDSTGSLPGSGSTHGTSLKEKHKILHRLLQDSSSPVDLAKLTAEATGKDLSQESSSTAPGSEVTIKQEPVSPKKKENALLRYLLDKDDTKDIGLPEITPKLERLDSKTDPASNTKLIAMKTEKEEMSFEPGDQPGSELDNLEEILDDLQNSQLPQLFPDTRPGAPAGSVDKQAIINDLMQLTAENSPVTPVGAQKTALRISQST",
  "T1 sequence (P06492 413-490, change not shown, further chain)": "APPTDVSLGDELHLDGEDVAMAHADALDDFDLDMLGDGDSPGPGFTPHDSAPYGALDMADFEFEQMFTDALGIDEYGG",
  "type": "in vivo",
  "settings": "T2 seeds on MS agar medium, grown for a week; FIG. 6",
  "protocol": "Seeds of T3 were sown on a MS agar medium containing 17β-estradiol (WAKO Pure Chemical Inds.). The expression of GUS gene was examined by GUS activity staining method and GUS activity assay method by the use of a transformed plant grown for a week.\nThe induction of reporter gene expression by estrogen in transformed Arabidopsis thaliana was performed by the following procedures. […] After that the transformed Arabidopsis thaliana was sprouted and grown in a bright place at 22° C. for specified days for the continuous exposure to estrogen.\nThe Gus activity assay method was performed in the following way. […] Twenty plants treated with estrogen were frozen in liquid nitrogen and were crushed into powder by a homogenizer. Then, the extraction buffer (50 mM NaH2PO4, 10 mM EDTA, 0.1% Triton-X-100, 0.1% N-sodium lauroyl sarcosinate, 10 mM β-mercaptoethanol) was added and soluble protein was extracted. 4-methylumbelliferyl-β-D-glucronide (4-MUG) was used for a substrate of GUS activity assay. The extracted protein solution was added with extraction buffer containing final 1 mM 4-MUG and was reacted at 37° C. for 1 hr. […] Also, protein concentration in the solution was measured and measured values obtained by fluorescent spectroscopy were standardized by the correction depending on the total protein in the protein solution. […]",
  "data": [
    {"smiles": "CC(C)(c1ccc(O)cc1)c1ccc(O)cc1", "note": "[BPA, bisphenol A]", "values": [
      {"measurement": "concentration from which expression of GUS gene responds / increases", "value": "> 100", "unit": "nM"},
      {"measurement": "optimal concentration for the expression of GUS gene", "value": 100, "unit": "nM"}
    ]}
  ]
}
